Measured values published in ChEMBL document CHEMBL1201861, “Genomics of Drug Sensitity in Cancer screening data, Wellcome Trust Sanger Institute”.

Tests used:
Experiment in all cases: cells
Format in all cases: functional, cell-based, Homo sapiens
BHT-101 = settings: Homo sapiens, BHT-101
Description: SANGER: Inhibition of human BHT-101 cell growth in a cell viability assay.

D-336MG = settings: Homo sapiens, D-336MG
Description: SANGER: Inhibition of human D-336MG cell growth in a cell viability assay.

GR-ST = settings: Homo sapiens, GR-ST
Description: SANGER: Inhibition of human GR-ST cell growth in a cell viability assay.

HCC1937 = settings: Homo sapiens, HCC1937;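 note: growth inhibition measured with a cell viability read-out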
Description: SANGER: Inhibition of human HCC1937 cell growth in a cell viability assay.

K562 = settings: Homo sapiens, K562
Description: SANGER: Inhibition of human K-562 cell growth in a cell viability assay.

KLE = settings: Homo sapiens, KLE;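 note: growth inhibition of human KLE cells, read out with a cell viability assay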
Description: SANGER: Inhibition of human KLE cell growth in a cell viability assay.

KYSE-510 = settings: Homo sapiens, KYSE-510;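 note: cell viability readout used to measure how strongly growth of the cell line is suppressed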
Description: SANGER: Inhibition of human KYSE-510 cell growth in a cell viability assay.

LU-139 = settings: Homo sapiens, LU-139
Description: SANGER: Inhibition of human LU-139 cell growth in a cell viability assay.

LXF-289 cell line = settings: Homo sapiens, LXF-289
Description: SANGER: Inhibition of human LXF-289 cell growth in a cell viability assay.

SNU-C2B = settings: Homo sapiens, SNU-C2B;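 note: cell viability readout used to measure compound-driven suppression of SNU-C2B cell proliferation, IC50 marking half-maximal growth inhibition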
Description: SANGER: Inhibition of human SNU-C2B cell growth in a cell viability assay.

SW900 = settings: Homo sapiens, SW900;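 note: IC50 is the concentration that inhibits SW900 cell growth, measured by a cell viability assay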
Description: SANGER: Inhibition of human SW900 cell growth in a cell viability assay.

A388 = settings: Homo sapiens, A388;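 note: growth inhibition of human A388 cells, read out with a cell viability assay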
Description: SANGER: Inhibition of human A388 cell growth in a cell viability assay.

C8166 = settings: Homo sapiens, C8166;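 note: growth inhibition of human C8166 cells measured by a cell viability assay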
Description: SANGER: Inhibition of human C8166 cell growth in a cell viability assay.

CAL-12T = settings: Homo sapiens, CAL-12T;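 note: growth inhibition of human CAL-12T cells, read out with a cell viability assay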
Description: SANGER: Inhibition of human CAL-12T cell growth in a cell viability assay.

VMRC-RCZ = settings: Homo sapiens, VMRC-RCZ;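 note: growth inhibition measured with a cell viability assay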
Description: SANGER: Inhibition of human VMRC-RCZ cell growth in a cell viability assay.

Row | IC50 (BHT-101) | IC50 (D-336MG) | IC50 (GR-ST) | IC50 (HCC1937) | IC50 (K562) | IC50 (KLE) | IC50 (KYSE-510) | IC50 (LU-139) | IC50 (LXF-289 cell line) | IC50 (SNU-C2B) | IC50 (SW900) | IC50 (A388) | IC50 (C8166) | IC50 (CAL-12T) | IC50 (VMRC-RCZ) | SMILES
1 | 820 nM |  |  |  |  |  |  |  |  |  |  |  |  |  |  | CCc1cncnc1N1CCN(Cc2nc3cc(C(F)(F)F)ccc3[nH]2)CC1
2 |  | > 500 nM | > 500 nM | > 500 nM | > 500 nM | > 500 nM | > 500 nM | > 500 nM | > 500 nM | > 500 nM | > 500 nM | > 500 nM | > 500 nM | > 500 nM | > 500 nM | COc1cc2ncnc(Nc3ccc(F)c(Cl)c3)c2cc1OCCCN1CCOCC1 [GEFITINIB]
